Data taken from patent US20240082221A1, “COMPOSITIONS AND METHODS FOR THE IDENTIFICATION OF COMPOUNDS THAT PROTECT AGAINST LIPOFUSCIN CYTOTOXICITY” (priority 2021, published 2024).

Legend:
[1] = system: unfolded protein response (UPR) pathway; test: RNAseq / Ingenuity Pathway Analysis of cells with dark LF cytotoxicity; type: cell-based, Human; conditions: cells with dark LF cytotoxicity vs cells rescued by treatment
Method: RNAseq. Cultured ARPE19 cells were treated with or without 15 uM A2E for 24 hours, then cells were harvested and total RNA extracted. […]. RNAseq profiles were analyzed further with Ingenuity Pathway Analysis (IPA, Qiagen).
To investigate the cellular processes leading to necroptosis, Ingenuity Pathway Analysis (IPA) was used to compare the transcriptomes of cells suffering of dark LF cytotoxicity with cells rescued by Nec7 treatment. […] The UPR is a conserved transcriptional response to the aberrant accumulation of misfolded proteins or lipids in the endoplasmic reticulum. UPR is elicited by three ER-resident sensors: PERK, IRE1α and […]. […] To evaluate the impact of UPR downregulation, the list of UPR transcripts inhibited by Nec7 was extracted and a new IPA analysis was performed for the downstream consequences (FIG. 5D).

cathepsin D = type: cell-based
Excerpt: Next, A2E buildups were imaged using a combination of DIC and fluorescence: A2E appeared as granules with well-defined edges, both within cells or after drying over a coverslip (FIGS. 14D and 14E). Next, the ability of the suspected A2E crystals to damage lysosomal membranes was investigated. A recently developed galectin-3 puncta assay for early detection of lysosomal membrane permeabilization (LMP) was used. Briefly, cytosolic galectin-3 rapidly binds to the glycocalyx in the luminal face of lysosomal membranes as they become leaky, which is easily detectable with anti-galectin high-affinity antibodies. L-Leucyl-L-Leucine methyl ester (LLO) a lysosomotropic peptide that causes LMP was used as positive control of puncta formation (FIG. 14E). […] LMP was confirmed by showing the […] of cathepsin D, as surrogate of lysosomal enzymes. […] Also, very remarkable was the observation that the same unique pattern of protection with arimoclomol and Nec-7 but not Nec-1 was observable for LLO (FIG. 14K), consistent with the idea that necroptosis by A2E is being caused by LMP.

IRE1α = test: qPCR of spliced XBP1 (XBP1s) as readout of IRE1α activity in ARPE-19; type: cell-based, Human; conditions: ARPE-19, qPCR
Excerpt: RNA isolation and quantitative PCR. Total RNA was extracted from cultured cells or mouse eye RPE layer using the RNeasy Mini kit (QIAGEN). The total RNA was digested with deoxyribonuclease I to prevent amplification of genomic DNA. The total RNA then was reversed transcribed using High-Capacity cDNA Reverse Transcription Kit (ThermoFisher Scientific, cat.no. 4368814) and analyzed gene expression using SYBR Green Master Mix (ThermoFisher Scientific, cat.no. 4472908) in an Applied Biosystems StepOne real time PCR machine. GAPDH was used as a reference gene. […] After genes were amplified by real time PCR, some of the PCR products were separated by 2.5% agarose gel.

CHOP = test: Western blot of CHOP upregulation (UPR, downstream of PERK); type: cell-based, Human; conditions: cells incubated with A2E
Method: Immunoblotting. Total cell lysates were extracted using RIPA lysis buffer (50 mM TrisHCl, Ph 8.0, 150 mM NaCl, 1% NP40, 0.5% Sodium Deoxycholate, 0.1% SDS, protease-phosphatase inhibitor) after the incubation of the specific sample group in a 48 well plate. Sonication or syringing (20 times) was done followed by centrifugation at 12,000×g for 10 mins and the supernatant was collected and stored in −80° C. Proten concentration from homogenates were assessed by Pierce Rapid Gold BCA protein assay kit (ThermoFisher Scientific, cat.no. A53225). Then 30 μg of protein was analyzed by standard SDS-PAGE gel. Samples were mixed 4:1 (v:v) with Nupage loading buffer with or without 8% 0-mercaptoethanol and heated for 10 min at 72° C. SDS-PAGE was done using 4-12% Nupage gel and buffer (Life, NP0335BOX). Next, SDS-PAGE gel was transferred to nitrocellulose membrane (Whatman, PROTAN BA83) overnight at 20V. The following day, 5% milk in TBS was used for 2 h blocking the membrane and then primary antibody was added in TBST (TBS, 0.1% Tween-20) for overnight at 4° C. Next day membranes were washed and incubated for 2 hours at room temperature with HRP conjugated secondary antibody (cat #G21234, Invitrogen) at 1:10,000 dilution. After 3 more washed membranes were probed with enhanced chemiluminescence (ECL) reagent and detected using an X-ray films for chemiluminescence image (GE healthcare, RPN2106). Scanning/imaging and quantitation of the image was done using silverfast 8 application software and Fiji Image J. Antibodies for Western blotting were list in FIG. 10.

N=C1S/C(=C\c2cn[nH]c2-c2ccc(F)cc2)C(=O)N1c1nccs1 [Nec7, Necrostatin 7]
transcriptome pathway variation induced by treatment (IPA) [1]: inhibition of the unfolded protein response (UPR)
effect on loss of cathepsin-D activity caused by A2E (cathepsin D): prevented
effect on LF-induced XBP1 splicing (XBP1s, IRE1α activity) (IRE1α): completely abrogated
effect on LF-induced upregulation of CHOP / UPR (CHOP): completely abrogated
